{"source": "paper PMC9750858", "about": "“Rapid biosensor development using plant hormone receptors as reprogrammable scaffolds” (Nature Biotechnology, 2022)", "key": {"PYR1^DIAZI / HAB1": {"molecular_target": "T1, PYR1^DIAZI / HAB1 (Arabidopsis thaliana, UniProt O49686, A160V/E8G/F108Y/F159G/L87M/M158V/V81Y)", "T1 construct": "made in house", "T1 sequence (O49686 with tags, fused parts or gaps E8G/V81Y/L87M/F108Y/M158V/F159G/A160V)": "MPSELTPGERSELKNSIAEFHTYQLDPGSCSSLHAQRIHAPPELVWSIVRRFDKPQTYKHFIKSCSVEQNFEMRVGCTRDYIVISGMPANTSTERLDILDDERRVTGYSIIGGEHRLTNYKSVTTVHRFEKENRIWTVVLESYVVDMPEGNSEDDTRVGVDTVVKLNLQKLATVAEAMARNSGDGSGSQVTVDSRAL", "assay": "Ligand/receptor-mediated PP2C (HAB1 phosphatase) inhibition, PYR1^DIAZI", "type": "biochemical"}, "PYR1^PIRI / HAB1": {"molecular_target": "T2, PYR1^PIRI / HAB1 (Arabidopsis thaliana, UniProt O49686, A160T/E130G/F159T/K59R/N119S/S122Q/S92M/V174A)", "T2 construct": "made in house", "T2 sequence (O49686 with tags, fused parts or gaps K59R/S92M/N119S/S122Q/E130G/F159T/A160T/V174A)": "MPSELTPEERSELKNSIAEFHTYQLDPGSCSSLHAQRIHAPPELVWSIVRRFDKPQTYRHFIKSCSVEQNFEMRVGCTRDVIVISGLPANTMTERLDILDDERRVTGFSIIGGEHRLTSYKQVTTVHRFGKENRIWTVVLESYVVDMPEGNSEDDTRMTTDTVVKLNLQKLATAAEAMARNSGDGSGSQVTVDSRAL", "assay": "Ligand/receptor-mediated PP2C (HAB1 phosphatase) inhibition, PYR1^PIRI", "type": "biochemical", "conditions": "HAB1 inhibition and Y2H assays"}, "PYR1^DIAZI-M": {"molecular_target": "T3, PYR1^DIAZI-M (Arabidopsis thaliana, UniProt O49686, A160V/E8G/F108Y/F159G/H60P/L87M/M158V/N90S/V81Y)", "T3 construct": "made in house", "T3 sequence (O49686 with tags, fused parts or gaps E8G/H60P/V81Y/L87M/N90S/F108Y/M158V/F159G/A160V)": "T1 sequence (O49686 with tags, fused parts or gaps E8G/V81Y/L87M/F108Y/M158V/F159G/A160V) with H60P, N90S", "assay": "ELISA-like plate assay, immobilized PYR1^DIAZI-M, biotinylated ΔN-HAB1^T+", "type": "binding", "conditions": "tested at 20 μM, ELISA-format"}, "PYR1^DIAZI [1]": {"molecular_target": "T4, PYR1^DIAZI (Arabidopsis thaliana, UniProt O49686, A160V/E8G/F108Y/F159G/L87M/M158V/V81Y)", "T4 sequence (Q9CAJ0 179-511, one chain of several)": "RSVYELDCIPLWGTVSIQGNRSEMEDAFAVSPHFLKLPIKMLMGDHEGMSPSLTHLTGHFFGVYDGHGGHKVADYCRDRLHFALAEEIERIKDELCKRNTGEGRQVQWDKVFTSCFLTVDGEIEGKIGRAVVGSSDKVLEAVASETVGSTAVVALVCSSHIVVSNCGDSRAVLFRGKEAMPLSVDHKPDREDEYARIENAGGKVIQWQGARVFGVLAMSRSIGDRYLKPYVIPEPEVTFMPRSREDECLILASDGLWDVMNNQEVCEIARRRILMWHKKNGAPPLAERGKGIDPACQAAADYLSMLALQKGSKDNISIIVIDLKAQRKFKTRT", "assay": "Yeast transcriptional activation circuit Z4-PYR1/VP64-ΔN-HAB1, GFP reporter, PYR1^DIAZI", "conditions": "panel of six chemically similar organophosphates"}, "PYR1^DIAZI [2]": {"molecular_target": "T4, PYR1^DIAZI", "assay": "Split NanoLuc luciferase complementation in yeast, NLuc^N-PYR1^DIAZI/NLuc^C-HAB1", "type": "cell-based", "set-up": ">PYR1-DIAZI; expressed in transfected cells; host or cells: Saccharomyces cerevisiae BY4742"}}, "note": "Changes are numbered by the printed parent chain.", "data": [{"smiles": "CCOP(=S)(OCC)Oc1cc(C)nc(C(C)C)n1", "note": "[Diazinon, diazinon]", "values": [{"measurement": "EC50", "setting": "PYR1^DIAZI / HAB1", "result": 36, "unit": "nM"}, {"measurement": "ligand concentrations required for activation of PYR1^PIRI above background", "setting": "PYR1^PIRI / HAB1", "result": "high-nanomolar to low-micromolar"}, {"measurement": "discrimination of on-target ligand from other organophosphates by PYR1^DIAZI", "setting": "PYR1^DIAZI-M", "result": "good discrimination"}, {"measurement": "PYR1^DIAZI EC50 to on-target ligand relative to other organophosphates", "setting": "PYR1^DIAZI [1]", "result": "greater than tenfold lower than all other molecules profiled"}, {"measurement": "EC50", "setting": "PYR1^DIAZI [2]", "result": 24, "unit": "nM"}]}]}
